Results taken from patent US8236359B2, “Use of phytoecdysones in the preparation of a composition for acting on the metabolic syndrome” (Institut Biophytis SAS, priority 2007, dated 2012).

How the values were obtained:
male mice C57 BL/6 [1] = assay: Effect of phytoecdysones on mice subjected to a fat (lard, inductor) diet for three weeks; assay type: in vivo, mice (Mus musculus line C57BI6)
Description: A test is carried out for studying the effect of phytoecdysones on mice subjected to a fat diet for three weeks
The fat diet or inductor diet consists in supplying large amounts of fat matter in the form of lard. The mice selected for this study are male mice C57 BL/6, 6-weeks old at the beginning of this inductor diet. Such mice are a preferred study model for analyzing the impact of the quinoa extract enriched with phytoecdysones according to the invention on the physiological parameters of the metabolic syndrome.
The inductor diet is a diet enriched with lard.
(§1) The 24 mice of each series have been subjected to a diet, such as detailed in the table 2, for three weeks and have been treated at the same time with the pure molecule, or a quinoa extract enriched up to 1.6% (2.24% the last treatment week for the control series) or 7% of 20-hydroxyecdysone (20E). The concentration of 20-hydroxyecdysone is adjusted to 40 mg per kg of food.
(§2) While taking account of the amount of food ingested on average by the mice, the administered dose of 20E corresponds in the three treatments to 5 mg of 20E per kg of the body weight and per day. The food is supplied in excess, three times a week, for both diets and the three treatments. On average, 40 g of food are supplied for each cage and per day, i.e. 6.5 g of food for each mouse and per day.
(§3) The table 2 below indicates in more detail the composition of the food diet to which the mice are subjected.
(§4) At the time of the sacrifice, the weight of the mice (Bwt), as well as the weight of the liver, the epididymis adipose tissue (EAT) and the subcutaneous adipose tissue (SCAT) are measured.
(§5) Cells of the epididymis adipose tissue are taken for carrying out a count and a morphological analysis.

male mice C57 BL/6 [2] = assay: Effect of phytoecdysones on mice subjected to a normal control diet; assay type: in vivo, mice (Mus musculus line C57BI6)
Description: At the same time, another test is carried out for studying the effect of these same phytoecdysones on mice which have not been subjected to a fat diet, which is considered as a normal control diet.
as §1, §2, §3, §4, §5

CC(C)(O)CC[C@@H](O)[C@](C)(O)[C@H]1CC[C@@]2(O)C3=CC(=O)[C@@H]4C[C@@H](O)[C@@H](O)C[C@]4(C)[C@H]3CC[C@]12C [pure molecule, 20-hydroxyecdysone]
mode of the distribution of adipocyte diameters (male mice C57 BL/6 [1]; FIG. 5, lard control about 70): 60 µm
maximum adipocyte diameter of the distribution (male mice C57 BL/6 [1]; FIG. 5, lard control up to 110): 90 µm
effect on adipocyte diameter (male mice C57 BL/6 [1]; epididymis adipose tissue cells, FIG. 4): reduces the adipocyte sizes in a significant manner
obesity / adiposity induced by hyperlipidical and hypercalorific diet (conclusion) (male mice C57 BL/6 [1]; gonad and subcutaneous tissue): avoid a development of the an obesity
decrease of the adiposity, gonad (epididymis) adipose tissue (% EAT) (male mice C57 BL/6 [1]; three weeks, 5 mg 20E/kg/day, versus untreated lard-diet mice, FIG. 2): 50%
effect in non obese animals with a normal diet (conclusion) (male mice C57 BL/6 [2]): no effect
adiposity, gonad (epididymis) adipose tissue (% EAT) (male mice C57 BL/6 [2]; three weeks, 5 mg 20E/kg/day, versus untreated mice, FIG. 2): does not modify the adiposity
